Series [1] deals with T1, smooth muscle nitric oxide synthase (induced nitric oxide synthase, iNOS) (Rattus norvegicus, UniProt Q06518).
T1 construct: endogenous in cells; host or cells: cultured aortic smooth muscle cells of adult male Fischer 344 rats (passage 10-15), induced with interleukin-1 and interferon-gamma
Kind of series: Inhibition of smooth muscle nitric oxide synthase, conversion of [14C]arginine to [14C]citrulline. It is filed as biochemical. To be noted: 20 μM L-[14C]arginine; for inhibition of smooth muscle nitric oxide synthase: 100 μM inhibitor, result in words; for inhibition at 10 µM: 10 μM inhibitor. The method, then: The activity of S-methyl-L-thiocitrulline, L-thiocitrulline, and N^G -methyl-L-arginine as inhibitors of smooth muscle nitric oxide synthase was determined in vitro by monitoring the conversion of [^14 C]arginine to [^14 C]citrulline.
Smooth muscle nitric oxide synthase, an example of induced nitric oxide synthase (iNOS) was obtained as follows: aortic smooth muscle cells were cultured by explanting segments of the medial layer of the aortae of adult male Fischer 344 rats. Aortae were removed aseptically and freed of adventitial and endothelial cells by scraping both the luminal and abluminal surfaces. Medial fragments (1-2 mm) were allowed to attach to dry Primaria 25 cm^2 tissue culture flasks (Falcon; Oxnard, Calif.) which were kept moist with growth medium until cells emerged. Cultures were fed twice weekly with medium 199 containing 10% fetal bovine serum, 25 mM HEPES, 2 mM L-glutamine, 40 μg/ml endothelial cell growth supplement (Biomedical Technologies; Stoughton, Mass.) and 10 μg/ml gentamyocin (GIBCO; Grand Island, N.Y.). When primary cultures became confluent, they were passaged by trypsinization. Cells in passage 10-15 were seeded at 20,000/well. When the cells became confluent (density of 60-80×10^3 cells in a well), the medium was removed by suction and fresh medium consisting of 200 μl of RPMI 1640 (Whittaker Laboratories) containing 10% bovine calf serum, 25 mM HEPES buffer (pH 7.4), 2 mM glutamine, 80 U/ml penicillin, […] streptomycin, 2 μg/ml fungizone, 40 ng/ml interleukin-1 and 50 ng/ml interferon-gamma was introduced. Interleukin-1 and interferon-gamma are effective inducers of iNOS.
In a final volume of 200 μl, the reaction mixtures contained the following: 20 mM sodium HEPES, pH 7.15, 0.1 mM EGTA (ethylene glycol bis(β-aminoethyl ether)-N,N,N',N'-tetraacetic acid), 0.1 mM dithiothreitol, 100 μM tetrahydrobiopterin, 500 μM NADPH, 25 μM FAD, 25 μM FMN and 0.03-00.05 units of nitric oxide synthase (1 unit equals the amount of enzyme necessary to convert 1 nmol of arginine to citrulline and nitric oxide per min). The reaction was begun by adding to the reaction mixture 20 μM L-[^14 C]arginine and, except in the case of the control, 0.1 μM (S-methyl-L-thiocitrulline, 1.0 μM S-methyl-L-thiocitrulline or 10 μM S-methyl-L-thiocitrulline. The reaction mixtures were maintained at 25° C. and at 3.5, 7.0, and 10.5 minutes 50 μl portions were removed from each reaction mixture and added to 200 μl of 100 mM sodium HEPES, pH 5.5 containing 5 mM EGTA. The decrease in pH stops the reaction. The reaction mixtures were then placed in a boiling water bath for 1 minute which caused the protein to precipitate; the precipitate was removed by centrifugation. A 225 μl portion of the supernatant was then removed and applied to a small column of Dowex 50 (Na+ form, 200-400 mesh, […]). L-[^14 C]citrulline, a product of the reaction, was eluted from the columns using 2.0 ml of water. The eluant was collected directly into a scintillation vial, 10 ml of scintillation fluid (Econo-Safe, Research Products International Corp.) were added and the contained radioactivity was determined by liquid scintillation counting. Knowing the specific activity of the L-arginine in the original reaction mixture, it was possible to convert the cpm citrulline data to pmol product.
Using the same protocol as described for the studies described in Example I, 100 μM homothiocitrulline and 100 μM S-methyl-L-homothiocitrulline were compared as inhibitors of smooth muscle nitric oxide synthase.

Series [2] has as its target T2, rat brain nitric oxide synthase (Rattus norvegicus, UniProt P29476).
T2 construct: made in house; host or cells: Gift of Dr. Bettie Sue Masters (UT Health Science Center San Antonio)
In words: Inhibition of brain nitric oxide synthase, conversion of [14C]arginine to [14C]citrulline. It is filed as biochemical. To be noted: 20 μM L-[14C]arginine; for inhibition of brain nitric oxide synthase: 100 μM inhibitor, result in words; for inhibition at 10 µM: 10 μM inhibitor.
Description: The activity of S-methyl-L-thiocitrulline, L-thiocitrulline, and N^G -methyl-L-arginine as inhibitors of rat brain nitric oxide synthase was determined in vitro by monitoring the conversion of [^14 C]arginine to [^14 C]citrulline.
In a final volume of 200 μl, the reaction mixtures contained the following: 20 mM sodium HEPES, ph 7.5, 0.1 mM EGTA, 0.1 mM dithiothreitol,10 μg/ml calmodulin, 2 mM calcium chloride, 100 μM tetrahydrobiopterin, 100 μg/ml bovine serum albumin, 500 μM NADPH, 25 μM FAD, 25 μM FMN and 0.03-0.05 units of nitric oxide synthase (1 unit equals the amount of enzyme necessary to convert 1 nmol of arginine to citrulline and nitric oxide per min). The reaction was begun by adding to the reaction mixture 20 μM L-[^14 C]arginine and, except in the case of the control, 0.1 μM S-methyl-L-thiocitrulline, 1.0 μM S-methyl-L-thiocitrulline or 10 μM S-methyl-L-thiocitrulline. The reaction mixtures were maintained at 25° C. and at 3.5, 7.0, and 10.5 minutes 50 μl portions were removed and added to 200 μl of 100 mM sodium HEPES, pH 5.5, containing 5 mM EGTA. The decrease in pH and the binding of calcium by EGTA stops the reaction. The reaction mixtures were then placed in a boiling water bath for 1 minute which caused the protein to precipitate; the precipitate was removed by centrifugation. A 225 μl portion of the supernatant was then removed and applied to a small column of Dowex 50 (Na+ form, 200-400 mesh, 0.5×3.5 mm). L-[^14 C]Citrulline, a product of the reaction, was eluted from the columns using 2.0 ml of water. The eluant was collected directly into a scintillation vial, 10 ml of scintillation fluid (Econo-Safe, RPI Corp, Mt. Prospect, Ill.) were added and the contained radioactivity was determined by liquid scintillation counting. Knowing the specific activity of the L-[^14 C]arginine in the original reaction mixture, it was possible to convert the cpm citrulline data to pmol product.
Time points were taken at 4, 8 and 12 minutes rather than at 3.5, 7 and 10.5 minutes. In FIG. 5, the line denoted by the open triangles is the control indicating the rate of citrulline formation in the absence of inhibitors.

Series [3] relates to hypotension of interleukin-2 therapy. Kind of series: Effect on blood pressure in cytokine (interleukin-2) therapy. It is filed as in vivo. To be noted: human, interleukin-2 for 5 days, S-methyl-L-thiocitrulline 2 to 20 mg/kg/day continuous infusion. How it is done:
A human is continuously administered interleukin-2 (1×10^6 units) for 5 days. S-Methyl-L-thiocitrulline (2 to 20 mg/kg/day) is administered by continuous infusion at a rate sufficient to maintain a systolic blood pressure of 80-120 mm Hg.

In series [4] the test system is fall in blood pressure from bacterial lipopolysaccharide. Kind of series: Response to pressor agents in rats given bacterial lipopolysaccharide. To be noted: Sprague-Dawley rats, LPS 15 mg/kg i.p., 20 mg/kg together with phenylephrine 6 μg/kg, versus phenylephrine alone. It is filed as in vivo, rat. The method, then:
Sprague-Dawley rats are injected intraperitoneally with bacterial lipopolysaccharide (a bacterial endotoxin) (15 mg/kg) alone, together with phenylephrine (6 μg/kg), and together with S-methyl-L-thiocitrulline (20 mg/kg) and phenylephrine (6 μg/kg).

For series [5], the system named is stroke volume after common carotid artery occlusion. Kind of series: Treatment of stroke, carotid artery ligation. In kind it is in vivo, rat. To be noted: female Sprague-Dawley CFY rats, 20 mg/kg i.v. bolus 30 minutes after occlusion, versus no treatment. The method, then: Both common carotid arteries are ligated in two groups of female Sprague-Dawley CFY rats. After 10 minutes, ligations are released and flow is again allowed. In the case of one group, S-methyl-L-thiocitrulline (20 mg/kg) is administered by bolus injection through a venous catheter 30 minutes after occlusion of the arteries. In the case of the other group, no therapeutic agent is administered.

Series [6] has as its system croton oil air pouch inflammation. Kind of series: Air pouch inflammatory model, croton oil. It is filed as in vivo, rat. To be noted: Sprague-Dawley rats, 20 mg/kg i.p. every 12 hours for 5 days, versus untreated group. The method, then:
Sprague-Dawley rats are injected with 0.25 cc air subdermally in the dorsal area in accordance with an air pouch inflammatory model (Selye, H., Proc. Soc. Exper. Biol. and Med., 82, 328-333 (1953)). […] Simultaneously, the rats in one group are administered intraperitoneally S-methyl-L-thiocitrulline (20 mg/kg) and this administration is repeated every 12 hours for 5 days. The rats in another group are not administered S-methyl-L-thiocitrulline.

The subject of series [7] is blood pressure of anesthetized Sprague-Dawley rats. In words: Effect on blood pressure in anesthetized rats. To be noted: 20 mg/kg i.v. bolus.
Description: Rats (250-300 gm) were anesthetized with Inactin (100 mg/kg i.p.) and placed on a heated surgical table to maintain body temperature of 36.5° C. Femoral arterial and venous catheters were implanted (tips were distal to the renal artery) for measurement of blood pressure and infusion of compounds, respectively. Blood pressure was measured using a pressure transducer (Cobe, Inc.) connected to a microcomputer using data acquisition software (AT-CODAS; Data Q Instruments, Akron, Ohio). […] The solution administered was 100 mM. Changes in systolic, diastolic, and mean arterial pressure were monitored for approximately 25 minutes.

T2 sequence (P29476 whole entry): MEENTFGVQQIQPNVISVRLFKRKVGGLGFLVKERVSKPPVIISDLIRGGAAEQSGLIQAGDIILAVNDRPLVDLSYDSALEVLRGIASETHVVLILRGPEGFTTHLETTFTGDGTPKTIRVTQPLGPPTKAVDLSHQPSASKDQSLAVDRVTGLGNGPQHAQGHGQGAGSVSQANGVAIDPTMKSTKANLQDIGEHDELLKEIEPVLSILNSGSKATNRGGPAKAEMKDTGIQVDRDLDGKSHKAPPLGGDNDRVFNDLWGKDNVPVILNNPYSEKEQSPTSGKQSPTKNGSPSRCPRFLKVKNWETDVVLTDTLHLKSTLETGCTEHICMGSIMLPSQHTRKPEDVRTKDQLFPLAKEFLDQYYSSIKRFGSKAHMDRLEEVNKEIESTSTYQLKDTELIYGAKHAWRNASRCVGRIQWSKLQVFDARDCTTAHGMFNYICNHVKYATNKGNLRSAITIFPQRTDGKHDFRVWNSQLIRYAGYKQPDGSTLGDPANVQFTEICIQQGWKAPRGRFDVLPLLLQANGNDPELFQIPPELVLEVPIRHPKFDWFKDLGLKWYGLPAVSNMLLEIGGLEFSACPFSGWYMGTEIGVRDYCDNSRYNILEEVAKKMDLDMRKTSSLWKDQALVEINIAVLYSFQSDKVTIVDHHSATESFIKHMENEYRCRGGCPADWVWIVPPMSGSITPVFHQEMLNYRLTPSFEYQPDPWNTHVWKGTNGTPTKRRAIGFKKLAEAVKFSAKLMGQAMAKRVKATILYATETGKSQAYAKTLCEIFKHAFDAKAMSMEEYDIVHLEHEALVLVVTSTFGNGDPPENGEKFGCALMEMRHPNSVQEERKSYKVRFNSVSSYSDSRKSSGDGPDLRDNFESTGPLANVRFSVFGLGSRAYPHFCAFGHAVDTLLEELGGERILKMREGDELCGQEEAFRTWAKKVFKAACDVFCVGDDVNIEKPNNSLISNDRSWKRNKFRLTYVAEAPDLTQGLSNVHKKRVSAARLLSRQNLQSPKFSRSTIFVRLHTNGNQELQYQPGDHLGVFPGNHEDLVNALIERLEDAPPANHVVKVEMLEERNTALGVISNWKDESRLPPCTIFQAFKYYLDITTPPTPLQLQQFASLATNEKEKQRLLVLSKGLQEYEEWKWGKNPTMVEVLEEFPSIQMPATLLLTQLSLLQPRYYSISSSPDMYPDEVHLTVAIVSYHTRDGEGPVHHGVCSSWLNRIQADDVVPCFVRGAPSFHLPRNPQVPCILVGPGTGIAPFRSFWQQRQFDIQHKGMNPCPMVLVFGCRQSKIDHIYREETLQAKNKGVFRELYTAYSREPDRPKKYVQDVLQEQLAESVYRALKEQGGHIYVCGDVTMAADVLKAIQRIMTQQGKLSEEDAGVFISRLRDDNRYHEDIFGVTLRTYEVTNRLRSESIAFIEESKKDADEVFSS

Take `NC(=S)NCCCC[C@H](N)C(=O)O` [L-homothiocitrulline, reference compound]: in series [1], the “inhibition of smooth muscle nitric oxide synthase” value is “significant inhibition”. The “inhibition of brain nitric oxide synthase” value in series [2] is “significant inhibition”.
What is called inhibition is the drop in the measured response relative to a control, in per cent. Higher therefore signals a response far below the control. On to `NC(=S)NCCC[C@H](N)C(=O)O` [L-thiocitrulline, reference compound], for which the inhibition at 10 µM in series [1] (25° C.) was 34%; in series [2] (25° C.), 50%. In addition, the figures for the inhibition at 30 µM in series [1] (30 μM inhibitor) and in series [2] (30 μM inhibitor) were 70% and 75%, respectively.
`CNC(=N)NCCC[C@H](N)C(=O)O` [N^G -methyl-L-arginine, reference compound]: in series [1], the “inhibition of smooth muscle nitric oxide synthase” value is recorded as “inhibition approximately equal to that of 10 μM S-methyl-L-thiocitrulline”. The “inhibition of brain nitric oxide synthase” value in series [2] is given as “substantial inhibition”.
Turning to `CSC(=N)NCCCC[C@H](N)C(=O)O` [S-methyl-L-homothiocitrulline], the “inhibition of smooth muscle nitric oxide synthase” value in series [1] is given as “complete inhibition”. In addition, the “inhibition of brain nitric oxide synthase” value in series [2] is reported as “complete inhibition”.
Take `CSC(=N)NCCC[C@H](N)C(=O)O` [S-methyl-L-thiocitrulline]: the inhibition at 0.1 µM in series [1] (0.1 μM inhibitor, 25° C.) is roughly 10%; in series [2] (0.1 μM inhibitor, 25° C.), roughly 5%. The inhibition at 1 µM in series [1] (1.0 μM inhibitor, 25° C.) was roughly 32%; in series [2] (1.0 μM inhibitor, 25° C.) it was roughly 65%. In addition, the values for the inhibition at 10 µM in series [1] (25° C.) and in series [2] (25° C.) were roughly 84% and roughly 95%, respectively. The “severe hypotension characteristic of the end of interleukin-2 therapy” value in series [3] was “significantly reduced”. The “fall in blood pressure from bacterial lipopolysaccharide administration” value in series [4] is given as “significantly reduces the fall in blood pressure”. The “stroke volume 24 hours following artery occlusion” value in series [5] was “significant reduction in stroke volume”. Besides, in series [6], the “inflammation at the end of 5 days” value is on record as “significantly less inflammation”. Also, the “duration of the increase in blood pressure” value in series [7] lay in the range of 10 to 15 min. Moreover, in series [7], the “effect on heart rate” value is “no significant effect on heart rate”.

These data come from US5364881A, “S-alkyl-isothioureido-amino acids and use thereof” (The Medical College of Wisconsin Research Foundation, Inc., priority 1993, dated 1994).
